Entries after “also recorded” stand apart in the source; their conditions may differ.
Tested on: rabbit osteoclasts
Assay: TRAP(+) MNC formation in isolated rabbit osteoclast cultures, single treatment without LTB4 (Example 6)
Assay type: cell-based
Description: Rabbit osteoclasts were isolated as described by Victoria Tai's report (Doctoral Dissertation, 1997, Graduate Department of Pharmacology, University of Toronto) and Rraser P. Coxon et al. (Methods in Molecular Medicine, vol 80). Neonatal rabbits (New Zealand White) were sacrificed by ether-inhaling method under a hood. The removed long bones were dissected free of attached soft tissues and placed into ice-cold PBS. The long bones were cut longitudinally and mechanically curetted in 10 ml medium 199 with antibiotics (10 ug/ml penicillin G and 50 ug/ml gentamycin) in a glass Petri dish. Each bone was curetted with a scalpel blade and was finely minced. The fragments were then vigorously agitated by pipetting up and down using a pasteur pipette and vortex-mixed for 30 seconds. The fragments were allowed to settle and the cell suspension was then transferred to a 50 ml tube and the previous step repeated three times to a total volume of 40 ml. The bone fragments were allowed to settle (>1 min). The cell suspension was then transferred to a new 50 ml tube, passed through a 40 um cell strainer and centrifuged at 200 g for 8 minutes. The supernatant was removed and the pellet was immediately resuspended in α-MEM with 2% FBS (bicarbonate buffered medium).
40 uL droplets of osteoclast-containing suspensions were plated onto 60 mm tissue culture plastic dishes or on dentine slices in 96-well microtiter plates in 2% medium. The cells were allowed ninety minutes for attachment before the addition of 2 mL α-MEM with 2% FBS. After 24 hr culture, cells were washed to remove non-adherent cells and replaced with fresh medium as describes below.
After 24 hr in culture, the medium was replaced with fresh medium containing control, LTB4 receptor antagonists (1000 nM), DW1350 (10, 100 and 1000 nM) or LTB4 (100 nM) and the cultures were continued for an additional 48 hrs.
All cells were cultured at 37° C. in a humidified atmosphere of 95% air and 5% CO2 in bicarbonate buffered medium at pH 7.4.
Differentiated osteoclasts are multinucleated cells and have specific enzyme activity, such as ‘tartrate-resistant acid phosphatase (TRAP)’. Therefore, Osteoclast formation was determined by counting the number of TRAP-positive multinucleated cells (TRAP(+) MNCs).
After culture, the cells were fixed with 10% neutral buffered formalin for 30 min at 4° C., washed twice in distilled water and stained for TRAP activity by incubating with substrate. The number of TRAP(+)MNC with more than 2 nuclei was counted under photomicroscope.
Results were expressed as mean number of TRAP(+)MNC±SD of All experiments were done at least twice. Statistical analysis was performed for each experiment by student t-test.

Cc1nc(-c2ccc(OCCCCCOc3ccc(C(=N)NO)cc3)cc2)c(C(C)C)s1 [DW1350, N-hydroxy-4-{5-[4-(5-isopropyl-2-methyl-1,3-thiazol-4-yl)phenoxy]pentoxy}-benzamidine]
number of TRAP(+) MNCs / osteoclast formation (1000 nM, single treatment without LTB4, dentine slices, 48 hrs (FIG. 3-8)): significant inhibition on the formation of osteoclasts; also recorded: significantly inhibited it | cytotoxic effect based on cell morphology (10˜1000 nM, 48 hours): No cytotoxic effect based on cell morphology was not observed | number of TRAP(+) MNCs (10˜1000 nM, 48 hours, tissue culture dish, single treatment (FIG. 1, 2)): significantly decreased the number of TRAP(+) MNCs in a dose-dependent manner
